US7786097B2, “Tricyclic compounds, compositions and methods” (Pfizer Inc., priority 2007, dated 2010)
Read-outs that look alike come from different tables or passages of the source.

What was measured:
[1] = system: house dust mite-induced BAL inflammatory cell influx; assay: House dust mite model of asthma, BAL inflammatory cell influx; assay type: in vivo, Mice; conditions: 0.1, 1 and 10 mg/kg, p.o., b.i.d.
[2] = Oral dosing in portal vein-cannulated rats, portal vein plasma; assay type: in vivo; conditions: oral dosing of Example 2 (30 and 200 mg/kg), four-hour time period
[3] = system: Mouse Collagen-Induced Arthritis (mCIA); assay: Therapeutic mouse collagen-induced arthritis (mCIA) model; assay type: in vivo, Male DBA/J mice; conditions: Mus musculus; mice, dosing day 34 through day 49; read-out: Therapeutic mCIA (ED80 dose)
Text: Mouse Collagen-induced arthritis is a commonly used chronic, preclinical model of rheumatoid arthritis in which joint swelling and bone destruction occur following immunization with type II collagen. Reduction of disease incidence and severity has been shown previously to be predictive of disease-modification and signs and symptoms mitigation, respectively, in a clinical setting.
In the therapeutic mCIA model, induction of disease incidence and severity was synchronized via LPS stimulation. Male DBA/J mice were immunized with 100 ug of bovine type II collagen (bCII) on day 0. All mice received an intraperitoneal injection of 20 μg of LPS on day 28 and disease was allowed to develop through day 34. At day 34, all mice had disease (incidence=100%) with an average severity score of seven. Dosing of compounds was initiated in the therapeutic mode on day 34 and continued through day 49. Different treatments were compared by measuring the decrease in incidence (i.e., resolution of disease) and the decrease in severity of paw swelling over time.

[4] = system: Cortical bone formation rate (BFR); assay: Cortical bone histomorphometry, bone formation rate (BFR); assay type: in vivo; conditions: AUC 0-4 hr, mice
Procedure: During the in-life portion of each study, mice received two intraperitoneal (i.p.) injections (20 mg/kg, […]) of calcein (C-0875; Sigma-Aldrich, St. Louis, Mo.) on days 1 and 26 for bone histomorphometry measurements. Calcein incorporates into the bone mineral and allows measurement of bone formation rate. Calcein was dissolved in 2% sodium bicarbonate. During the tissue harvest, the left tibiae were excised and cleaned for cortical histomorphometry measurements. After all skin and muscle were removed, tibiae were placed in 70% ethanol 4° C.) in the dark for a minimum of 24 hours.
Ground transverse sections were used for histomorphometric analysis of cortical bone. Bones were sectioned using a low-speed saw (Isomet, Buehler, Lake Bluff, Ill.) equipped with a diamond wafer blade. The end of each tibia was removed proximal to tibia-fibula synostosis and a […] cross-section was cut. Using a roughened glass plate and a cork, sections were ground to […] until transparent and all labels were distinguishable under a fluorescent microscope. Sections were dehydrated using the following solutions for a minimum of two minutes each: 1) 70% ethanol, 2) 95% ethanol, 3) 100% ethanol, 4) 50/50 ethanol/xylene, and 5) xylene (twice) (#534056; Sigma-Aldrich, St. Louis, Mo.). Sections were mounted using Eukitt Quick Mounting Medium (#03989, Sigma-Aldrich, St. Louis, Mo.) after which coverslip was applied. Using the Osteomeasure Bone Analysis Program (Osteometrics, Inc., Decatur, Ga.), bone formation rate was calculated by tracing the 1st and […] fluorescent labels and the inner and outer perimeter of the bone. Bone formation rate was calculated by the following equation: (Inter-label width/Label interval)*(Labeled perimeter/Bone perimeter). At least five samples were measured from each treatment group in each study.

Serum osteocalcin = Serum osteocalcin suppression, 28-day repeat dose mouse model; assay type: in vivo, Swiss Webster female mice; conditions: mice
Procedure: The compounds were weighed and suspended in a vehicle of 0.5% methylcellulose/0.025% tween 20 (Sigma-Aldrich, St. Louis, Mo.). Compound suspensions were homogenized using a Polytron PT-3100 tissue homogenizer to create a very fine suspension and were then sonicated for 10 minutes using a water bath sonicator. Aliquots of each suspension were made for daily dosing at 0.2 ml/dose. Swiss Webster female mice, 10-12 weeks old, 28-29 grams, (Taconic, Germantown, N.Y.) were used in accordance with the guidelines of the Institutional Animal Care and Use Committee and in accordance with NIH guidelines on laboratory animal welfare. Mice were acclimated in the Pfizer animal facility for three to seven days prior to being utilized in a study. […] Each treatment group contained 5-10 mice. To establish a dosing regimen for the studies, a pilot pharmacodynamic time course experiment was conducted to quantify TNFα repression after a single ED80 dose.
Body weights were measured on the first and last day of each experiment. Blood samples were obtained after three weeks of dosing for a steady-state pharmacokinetic (PK) analysis. To assess compound effects on LPS-induced TNFα, all mice received an intraperitoneal injection of LPS (Salmonella typhosa, L-7895; Sigma-Aldrich, St. Louis) 2.5 hr after the last dose on day 28. Mice were sacrificed 90 minutes after LPS administration. Serum samples were quantified for osteocalcin and TNFα using the multiplex assays (Linco Research, Inc, St. Charles, Mo.; Luminex 100, Austin, Tex.). Samples were diluted 1:20 and the assay was run according to manufacturer's instructions. The osteocalcin standard was purchased separately (Biomedical Technologies Inc., Stoughton, Mass.). Mice were fasted for 4 hours before serum was collected for TNFα, and osteocalcin levels. For each experiment, outliers were detected by calculating the number of standard deviations from the mean of the group. If the value being examined was more than 2.5 standard deviations from the mean, it was excluded from the rest of the calculations.
The individual mouse percent inhibition values were fit to a four-parameter logistic model using the dose mean for each group.
ED50 and ED80 values were obtained for the various endpoints using a four-parameter logistic fit. For compounds which were tested multiple times, ED50 and ED80 values were obtained using four-parameter logistic fits of the combined data from multiple experiments.

[5] = Solubility and intrinsic dissolution; assay type: physicochemical; conditions: compared with Example 1
[6] = target: T1, full-length glucocorticoid (GR) protein (Homo sapiens, UniProt P04150); assay: Glucocorticoid receptor fluorescence polarization ligand binding (GRFP) assay
T1 construct: purchased Invitrogen
T1 sequence (P04150 1-777): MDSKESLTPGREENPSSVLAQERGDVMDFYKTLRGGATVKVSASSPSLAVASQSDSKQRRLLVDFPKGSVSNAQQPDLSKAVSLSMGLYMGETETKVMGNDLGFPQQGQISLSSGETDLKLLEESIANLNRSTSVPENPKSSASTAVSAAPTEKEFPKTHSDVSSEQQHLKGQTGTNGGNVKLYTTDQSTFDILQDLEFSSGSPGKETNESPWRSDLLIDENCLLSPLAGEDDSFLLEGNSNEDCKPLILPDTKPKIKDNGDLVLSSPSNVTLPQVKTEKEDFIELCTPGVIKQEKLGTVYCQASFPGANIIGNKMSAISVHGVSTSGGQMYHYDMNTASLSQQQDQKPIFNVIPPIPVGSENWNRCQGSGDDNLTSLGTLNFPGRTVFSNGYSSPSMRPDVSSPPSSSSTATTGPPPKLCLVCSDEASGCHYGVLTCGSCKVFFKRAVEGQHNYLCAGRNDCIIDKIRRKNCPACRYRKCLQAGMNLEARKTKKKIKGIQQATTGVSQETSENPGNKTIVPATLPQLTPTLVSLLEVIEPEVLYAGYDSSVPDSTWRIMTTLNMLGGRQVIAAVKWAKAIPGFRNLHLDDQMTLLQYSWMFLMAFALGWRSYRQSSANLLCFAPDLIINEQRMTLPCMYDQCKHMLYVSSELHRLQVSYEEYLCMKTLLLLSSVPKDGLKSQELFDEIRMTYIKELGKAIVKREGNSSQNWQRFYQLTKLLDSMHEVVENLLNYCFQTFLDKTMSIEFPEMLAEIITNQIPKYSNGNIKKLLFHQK
Text: GRFP: Glucocorticoid Receptor Binding
The glucocorticoid receptor fluorescence polarization ligand binding (GRFP) assay is used to evaluate direct binding of testing compounds to full-length glucocorticoid (GR) protein. Reagents for this assay are purchased from Invitrogen in a test kit. A fluorescent labeled GR ligand is used as a fluorescent tracer and test compounds compete with the fluorescent tracer for GR binding. The change in polarization value in the presence of test compounds is due to binding of test compounds to (GR) and is used to determine IC50 and relative binding affinity of test compounds for GR.

[7] = system: IL-6 levels in Human A549 lung epithelial cells; assay: IL-1β-stimulated IL-6 in A549 cells; assay type: cell-based; conditions: additional results (footnote a)
Procedure: IL-6 IC50 and % Inhibition
Human A549 lung epithelial cells (American Type Culture Collection, Rockville, Md.) were cultured in Kaighn's F-12K medium with penicillin-streptomycin (10 U/mL) and 10% heat-inactivated fetal bovine serum (all from Invitrogen, Grand Island, N.Y.). A549 cells were plated at a density of 30,000 cells/well in 96-well plates and incubated overnight at 37° C. and with 5% CO2. The cells were serum-starved by replacing the growth medium with serum-free Kaighn's F-12K medium with penicillin-streptomycin (10 U/mL) and, again, incubating overnight at 37° C. and with 5% CO2. On the third day, the medium was replaced with fresh serum-free medium and the cells were incubated with or without compound (vehicle was DMSO at 0.1% maximum concentration) for approximately 1 hour and then stimulated with 1 ng/mL recombinant human IL-1β (R&D Systems, Minneapolis, Minn.) for 20 hours at 37° C. and with 5% CO2. Cell supernatants were collected for determination of IL-6 levels using MSD (Meso Scale Discovery, Gaithersburg, Md.) 96-well Single Spot plates as per the manufacturer's instructions. Plates were read with an MSD Sector Imager 6000. […] Vehicle was used to define the 0% inhibition control. Percent inhibition for each compound concentration, relative to these controls, was calculated using Excel (Microsoft, Redmond, Wash.). […]

Row | Compound | cell infiltration into BAL fluid [1] | detection in portal vein plasma samples [2] | ED80 [3] | Cortical bone formation rate (BFR) EAUC50 [4] | Serum osteocalcin EAUC50 (Serum osteocalcin; AUC 0-4 hr) | Serum osteocalcin EAUC80 (Serum osteocalcin; AUC 0-4 hr) | Osteocalcin Suppression (ED80 dose) (Serum osteocalcin; oral gavage 28 days, serum osteocalcin) | solubility and intrinsic dissolution [5] | IC50 [6] | IC50 ([6]; additional results (footnote a)) | IL-6 % Inhibition [7]
1 | Cc1ncccc1NC(=O)c1ccc2c(c1)CC[C@@H]1C[C@@](O)(C(F)(F)F)CC[C@@]21Cc1ccccc1 [Example 1, (4βS,7R,8αR)-4β-benzyl-7-hydroxy-N-(2-methylpyridin-3-yl)-7-(trifluoromethyl)-4β,5,6,7,8,8α,9,10-octahydrophenanthrene-2-carboxamide] | mitigated cell infiltration into BAL fluid dose-dependently | detection of Example 1 | < 2 mg/kg | 270 ng·h/mL | 1300 ng·h/mL | 4200 ng·h/mL | >10 mg/kg |  |  |  | 
2 | Cc1ncccc1NC(=O)c1ccc2c(c1)CC[C@@H]1C[C@@](OP(=O)(O)O)(C(F)(F)F)CC[C@@]21Cc1ccccc1 [Example 2, (2R,4αS,10αR)-4α-benzyl-7-((2-methylpyridin-3-yl)carbamoyl)-2-(trifluoromethyl)-1,2,3,4,4α,9,10,10α-octahydrophenanthren-2-yl dihydrogen phosphate] |  |  |  |  |  |  |  | enhanced solubility and intrinsic dissolution | 79 nM | 42 nM | 80%
